Reference: patent publication US8188077B2, “Apoptosis-inducing agents for the treatment of cancer and immune and autoimmune diseases” (Abbott Laboratories, priority 2010, dated 2012)

target: T1, Bcl-2 protein (Homo sapiens, UniProt P10415, DELINS35-91DVEENRTEAPEGTESE, form not given); assay: Bcl-2 fluorescence polarization assay (FPA) binding; conditions: 10 nM Bcl-2 protein, 1 nM fluorescein-labeled BAX peptide, room temperature, read-out: Bcl-2 FPA 11pt Ki
T1 construct: fused on or other part: Bcl-xL (Q07817) residues 29-44 stand in place of Bcl-2's own unstructured loop 35-91; The C-terminal membrane anchor (208-239) is absent
T1 sequence (P10415 with tags, fused parts or gaps with the stated changes): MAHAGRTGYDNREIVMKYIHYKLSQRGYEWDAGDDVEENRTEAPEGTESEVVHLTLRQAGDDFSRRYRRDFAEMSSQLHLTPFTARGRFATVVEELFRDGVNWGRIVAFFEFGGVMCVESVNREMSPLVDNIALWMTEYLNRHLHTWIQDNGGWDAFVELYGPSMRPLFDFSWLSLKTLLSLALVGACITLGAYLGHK
Protocol: Assays for the inhibition of Bcl-2 were performed in 96-well microtiter plates. Compounds of the instant invention were diluted in DMSO to concentrations between […] and 10 pM and introduced into each well of the plate. A mixture totaling 125 µL per well of assay buffer (20 mM phosphate buffer (pH 7.4), 1 mM EDTA, 0.05% PF-68), 10 nM of Bcl-2 protein (prepared according to the procedure described in PNAS 2001, 98, 3012-3017), 1 nM fluorescein-labeled BAX peptide (prepared in-house), and the DMSO solution of the compound of the instant invention was shaken for 2 minutes and placed in a LJL Analyst (LJL Bio Systems, CA. Polarization was measured at room temperature using a continuous Fluorescein lamp (excitation 485 nm, emission 530 nm). Ki values were calculated using Microsoft Excel.

Row | Compound | Ki
1 | C[C@@H]1[C@H]2C[C@@H](C[C@H]1Nc1ccc(S(=O)(=O)NC(=O)c3ccc(N4CCN(Cc5ccccc5-c5ccc(Cl)cc5)CC4)cc3)cc1[N+](=O)[O-])C2(C)C [Example 1, 4-{4-[(4′-chlorobiphenyl-2-yl)methyl]piperazin-1-yl}-N-[(3-nitro-4-{[(1R,2R,3R,5S)-2,6,6-trimethylbicyclo[3.1.1]hept-3-yl]amino}phenyl)sulfonyl]benzamide] | 174 nM
2 | CC(=O)N(C1CCN(c2ccc(C(=O)NS(=O)(=O)c3ccc(NCC4CCCCC4)c([N+](=O)[O-])c3)cc2)CC1)[C@H]1C[C@H]2C[C@@H]([C@@H]1C)C2(C)C [Example 2, 4-(4-{acetyl[(1S,2S,3S,5R)-2,6,6-trimethylbicyclo[3.1.1]hept-3-yl]amino}piperidin-1-yl)-N-({4-[(cyclohexylmethyl)amino]-3-nitrophenyl}sulfonyl)benzamide] | 220 nM
3 | C[C@@H]1[C@@H](N(C(=O)c2ccccc2)C2CCN(c3ccc(C(=O)NS(=O)(=O)c4ccc(NCC5CCCCC5)c([N+](=O)[O-])c4)cc3)CC2)C[C@H]2C[C@@H]1C2(C)C [Example 3, 4-(4-{benzoyl[(1S,2S,3S,5R)-2,6,6-trimethylbicyclo[3.1.1]hept-3-yl]amino}piperidin-1-yl)-N-({4-[(cyclohexylmethyl)amino]-3-nitrophenyl}sulfonyl)benzamide] | 65 nM
4 | C[C@@H]1[C@@H](Nc2cccc(-c3ccc(C(=O)NS(=O)(=O)c4ccc(NCC5CCCCC5)c([N+](=O)[O-])c4)cc3)c2)C[C@H]2C[C@@H]1C2(C)C [Example 4, N-({4-[(cyclohexylmethyl)amino]-3-nitrophenyl}sulfonyl)-3′-{[(1S,2S,3S,5R)-2,6,6-trimethylbicyclo[3.1.1]hept-3-yl]amino}biphenyl-4-carboxamide] | 191 nM
5 | C[C@@H]1[C@@H](N(C(=O)Cc2ccccc2)C2CCN(c3ccc(C(=O)NS(=O)(=O)c4ccc(NCC5CCCCC5)c([N+](=O)[O-])c4)cc3)CC2)C[C@H]2C[C@@H]1C2(C)C [Example 5, N-({4-[(cyclohexylmethyl)amino]-3-nitrophenyl}sulfonyl)-4-(4-{(phenylacetyl)[(1S,2S,3S,5R)-2,6,6-trimethylbicyclo[3.1.1]hept-3-yl]amino}piperidin-1-yl)benzamide] | 59.2 nM
6 | C[C@@H]1[C@@H](Nc2ccc(-c3ccc(C(=O)NS(=O)(=O)c4ccc(NCC5CCCCC5)c([N+](=O)[O-])c4)cc3)cc2)C[C@H]2C[C@@H]1C2(C)C [Example 6, N-({4-[(cyclohexylmethyl)amino]-3-nitrophenyl}sulfonyl)-4′-{[(1S,2S,3S,5R)-2,6,6-trimethylbicyclo[3.1.1]hept-3-yl]amino}biphenyl-4-carboxamide] | 155 nM
7 | C[C@@H]1[C@@H](N(CCCc2ccccc2)c2ccc(-c3ccc(C(=O)NS(=O)(=O)c4ccc(NCC5CCCCC5)c([N+](=O)[O-])c4)cc3)cc2)C[C@H]2C[C@@H]1C2(C)C [Example 7, N-({4-[(cyclohexylmethyl)amino]-3-nitrophenyl}sulfonyl)-4′-{(3-phenylpropyl)[(1S,2S,3S,5R)-2,6,6-trimethylbicyclo[3.1.1]hept-3-yl]amino}biphenyl-4-carboxamide] | 1260 nM
8 | O=C(NS(=O)(=O)c1ccc(NCC2CCCCC2)c([N+](=O)[O-])c1)c1ccc(N2CCC3CC2CN3CC23CC4CC(CC(C4)C2)C3)cc1 (stereo not shown) [Example 8, 4-{6-[adamantan-1-ylmethyl]-2,6-diazabicyclo[3.2.1]oct-2-yl}-N-({4-[(cyclohexylmethyl)amino]-3-nitrophenyl}sulfonyl)benzamide] | 84.6 nM
9 | C[C@@H]1[C@@H](N(C(=O)CCc2ccccc2)C2CCN(c3ccc(C(=O)NS(=O)(=O)c4ccc(N[C@H](CCN5CCOCC5)CSc5ccccc5)c(S(=O)(=O)C(F)(F)F)c4)cc3)CC2)C[C@H]2C[C@@H]1C2(C)C [Example 9, N-[(4-{[(2R)-4-(morpholin-4-yl)-1-(phenylthio)butan-2-yl]amino}-3-[(trifluoromethyl)sulfonyl]phenyl)sulfonyl]-4-(4-{(3-phenylpropanoyl)[(1S,2S,3S,5R)-2,6,6-trimethylbicyclo[3.1.1]hept-3-yl]amino}piperidin-1-yl)benzamide] | < 20 nM
10 | O=C(NS(=O)(=O)c1ccc(N[C@H](CCN2CCOCC2)CSc2ccccc2)c([N+](=O)[O-])c1)c1ccc(N2CCN(CC34CC5CC(CC(C5)C3)C4)CC2)cc1 [Example 10, 4-{4-[adamantan-1-ylmethyl]piperazin-1-yl}-N-[(4-{[(2R)-4-(morpholin-4-yl)-1-(phenylthio)butan-2-yl]amino}-3-nitrophenyl)sulfonyl]benzamide] | < 20 nM
11 | O=C(NS(=O)(=O)c1ccc(NCC2CCCCC2)c([N+](=O)[O-])c1)c1ccc(N2C[C@@H]3C[C@H]2CN3CC23CC4CC(CC(C4)C2)C3)cc1 [Example 11, 4-{(1S,4S)-5-[adamantan-1-ylmethyl]-2,5-diazabicyclo[2.2.1]hept-2-yl}-N-({4-[(cyclohexylmethyl)amino]-3-nitrophenyl}sulfonyl)benzamide] | 1300 nM
12 | CC12CC3CC(Br)(C1)CC(CN1CCN(c4ccc(C(=O)NS(=O)(=O)c5ccc(NCC6CCCCC6)c([N+](=O)[O-])c5)cc4)CC1)(C3)C2 (stereo not shown) [Example 12, 4-(4-{[3-bromo-5-methyladamantan-1-yl]methyl}piperazin-1-yl)-N-({4-[(cyclohexylmethyl)amino]-3-nitrophenyl}sulfonyl)benzamide] | 304 nM
13 | CC12CC3CC(C)(C1)CC(CN1CCN(c4ccc(C(=O)NS(=O)(=O)c5ccc(NCC6CCCCC6)c([N+](=O)[O-])c5)cc4)CC1)(C3)C2 [Example 13, N-({4-[(cyclohexylmethyl)amino]-3-nitrophenyl}sulfonyl)-4-(4-{[3,5-dimethyladamantan-1-yl]methyl}piperazin-1-yl)benzamide] | 608 nM
14 | CC12CC(CN(c3ccc(S(=O)(=O)NC(=O)c4ccc(N5CCN(Cc6ccccc6-c6ccc(Cl)cc6)CC5)cc4)cc3)C1=O)C2 [Example 14, 4-{4-[(4′-chlorobiphenyl-2-yl)methyl]piperazin-1-yl}-N-{[4-(1-methyl-2-oxo-3-azabicyclo[3.1.1]hept-3-yl)phenyl]sulfonyl}benzamide] | 47.4 nM
15 | CC1(C)[C@H]2C=C(c3ccccc3CN3CCN(c4ccc(C(=O)NS(=O)(=O)c5ccc(NCC6CCOCC6)c([N+](=O)[O-])c5)cc4)CC3)[C@]1(C)CC2 [Example 15, N-({3-nitro-4-[(tetrahydro-2H-pyran-4-ylmethyl)amino]phenyl}sulfonyl)-4-(4-{2-[(1R,4R)-1,7,7-trimethylbicyclo[2.2.1]hept-2-en-2-yl]benzyl}piperazin-1-yl)benzamide] | < 20 nM
16 | O=C(NS(=O)(=O)c1ccc(NCC2CCOCC2)c([N+](=O)[O-])c1)c1ccc(N2CCN(Cc3ccccc3NC3CC4CC3C3CCCC43)CC2)cc1 (stereo not shown) [Example 16] | 39.7 nM
17 | C[C@H]1[C@H]2C[C@H](CC2Nc2ccccc2CN2CCN(c3ccc(C(=O)NS(=O)(=O)c4ccc(NCC5CCOCC5)c([N+](=O)[O-])c4)cc3)CC2)C1(C)C (stereo partly drawn) [Example 17, N-({3-nitro-4-[(tetrahydro-2H-pyran-4-ylmethyl)amino]phenyl}sulfonyl)-4-[4-(2-{[(1R,4R,6S)-5,5,6-trimethylbicyclo[2.2.1]hept-2-yl]amino}benzyl)piperazin-1-yl]benzamide] | 30.1 nM
18 | CC1(C)[C@H]2CCC(Nc3ccccc3CN3CCN(c4ccc(C(=O)NS(=O)(=O)c5ccc(NCC6CCOCC6)c([N+](=O)[O-])c5)cc4)CC3)[C@@H]1C2 (stereo partly drawn) [Example 18, 4-[4-(2-{[(1R,5S)-6,6-dimethylbicyclo[3.1.1]hept-2-yl]amino}benzyl)piperazin-1-yl]-N-({3-nitro-4-[(tetrahydro-2H-pyran-4-ylmethyl)amino]phenyl}sulfonyl)benzamide] | < 20 nM
19 | CC1(C)[C@H]2CC(CN3CCN(c4ccc(C(=O)NS(=O)(=O)c5ccc(NCC6CCCCC6)c([N+](=O)[O-])c5)cc4)CC3)=C(c3ccc(Cl)cc3)[C@@H]1C2 [Example 19, 4-(4-{[(1R,5R)-2-(4-chlorophenyl)-6,6-dimethylbicyclo[3.1.1]hept-2-en-3-yl]methyl}piperazin-1-yl)-N-({4-[(cyclohexylmethyl)amino]-3-nitrophenyl}sulfonyl)benzamide] | 603 nM
20 | CC1(C)CCC(NCC2C3CC4CC(C3)CC2C4)C(CN2CCN(c3ccc(C(=O)NS(=O)(=O)c4ccc(NCC5CCOCC5)c([N+](=O)[O-])c4)cc3)CC2)C1 (stereo not shown) [Example 20, 4-{4-[(2-{[adamantan-2-ylmethyl]amino}-5,5-dimethylcyclohexyl)methyl]piperazin-1-yl}-N-({3-nitro-4-[(tetrahydro-2H-pyran-4-ylmethyl)amino]phenyl}sulfonyl)benzamide] | > 51900 nM
21 | C[C@@H]1[C@@H](NC2CCC(C)(C)CC2CN2CCN(c3ccc(C(=O)NS(=O)(=O)c4ccc(NCC5CCOCC5)c([N+](=O)[O-])c4)cc3)CC2)C[C@@H]2C[C@H]1C2(C)C (stereo partly drawn) [Example 21, 4-{4-[(5,5-dimethyl-2-{[(1R,2S,3S,5S)-2,6,6-trimethylbicyclo[3.1.1]hept-3-yl]amino}cyclohexyl)methyl]piperazin-1-yl}-N-({3-nitro-4-[(tetrahydro-2H-pyran-4-ylmethyl)amino]phenyl}sulfonyl)benzamide] | 5600 nM
22 | O=C(NS(=O)(=O)c1ccc(NCC2CCOCC2)c([N+](=O)[O-])c1)c1ccc(N2CCN(Cc3cc([N+](=O)[O-])ccc3N3CC4CCC(CC4)C3)CC2)cc1 [Example 22, 4-{4-[2-(3-azabicyclo[3.2.2]non-3-yl)-5-nitrobenzyl]piperazin-1-yl}-N-({3-nitro-4-[(tetrahydro-2H-pyran-4-ylmethyl)amino]phenyl}sulfonyl)benzamide] | 31.4 nM
